Data taken from PubChem BioAssay (NCI).
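Method: 48-hour compound exposure of cells in 96-well plates, five concentrations, linear interpolation of endpoints. At the TGI there is no net growth.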

Legend:
Assay in all cases: NCI-60 cell line screen, 48 h
786-0 renal = test system: 786-0 renal
A549 NSCLC = test system: A549 NSCLC
ACHN renal = test system: ACHN renal
BT-549 breast = test system: BT-549 breast
CAKI-1 renal = test system: CAKI-1 renal
CCRF-CEM leukemia = test system: CCRF-CEM leukemia
EKVX NSCLC = test system: EKVX NSCLC
HCC-2998 colon = test system: HCC-2998 colon
HCT-116 colon = test system: HCT-116 colon
HCT-15 colon = test system: HCT-15 colon
HOP-62 NSCLC = test system: HOP-62 NSCLC
HS 578T breast = test system: HS 578T breast
HT29 colon = test system: HT29 colon
IGROV1 ovarian = test system: IGROV1 ovarian
K-562 leukemia = test system: K-562 leukemia
KM12 colon = test system: KM12 colon
LOX IMVI melanoma = test system: LOX IMVI melanoma
M14 melanoma = test system: M14 melanoma
MALME-3M melanoma = test system: MALME-3M melanoma
MDA-MB-231 breast = test system: MDA-MB-231 breast
MDA-MB-435 = test system: MDA-MB-435
MDA-N = test system: MDA-N
MOLT-4 leukemia = test system: MOLT-4 leukemia
NCI-H226 lung = test system: NCI-H226 lung
NCI-H23 lung = test system: NCI-H23 lung
NCI-H460 lung = test system: NCI-H460 lung
NCI-H522 lung = test system: NCI-H522 lung
NCI/ADR-RES ovarian = test system: NCI/ADR-RES ovarian
OVCAR-3 ovarian = test system: OVCAR-3 ovarian
OVCAR-4 ovarian = test system: OVCAR-4 ovarian
OVCAR-5 ovarian = test system: OVCAR-5 ovarian
OVCAR-8 ovarian = test system: OVCAR-8 ovarian
PC-3 prostate = test system: PC-3 prostate
RPMI-8226 leukemia = test system: RPMI-8226 leukemia
SF-268 CNS = test system: SF-268 CNS
SF-295 CNS = test system: SF-295 CNS
SF-539 CNS = test system: SF-539 CNS
SK-MEL-2 melanoma = test system: SK-MEL-2 melanoma
SK-MEL-28 melanoma = test system: SK-MEL-28 melanoma
SK-MEL-5 melanoma = test system: SK-MEL-5 melanoma
SK-OV-3 ovarian = test system: SK-OV-3 ovarian
SN12C renal = test system: SN12C renal
SNB-19 CNS = test system: SNB-19 CNS
SNB-75 CNS = test system: SNB-75 CNS
SR leukemia = test system: SR leukemia
SW-620 colon = test system: SW-620 colon
TK-10 renal = test system: TK-10 renal
U251 CNS = test system: U251 CNS
UACC-257 melanoma = test system: UACC-257 melanoma
UACC-62 melanoma = test system: UACC-62 melanoma
UO-31 renal = test system: UO-31 renal
COLO 205 colon = test system: COLO 205 colon
HL-60(TB) leukemia = test system: HL-60(TB) leukemia
HOP-92 NSCLC = test system: HOP-92 NSCLC
RXF 393 renal = test system: RXF 393 renal

## Cc1cc(C)c(C2CC(O)C(CO)O2)cc1C (centres undefined)
786-0 renal
  TGI: > 100 µM
A549 NSCLC
  TGI: > 100 µM
ACHN renal
  TGI: > 100 µM
BT-549 breast
  TGI: > 100 µM
CAKI-1 renal
  TGI: > 100 µM
CCRF-CEM leukemia
  TGI: > 100 µM
EKVX NSCLC
  TGI: > 100 µM
HCC-2998 colon
  TGI: > 100 µM
HCT-116 colon
  TGI: > 100 µM
HCT-15 colon
  TGI: > 100 µM
HOP-62 NSCLC
  TGI: > 100 µM
HS 578T breast
  TGI: > 100 µM
HT29 colon
  TGI: > 100 µM
IGROV1 ovarian
  TGI: > 100 µM
K-562 leukemia
  TGI: > 100 µM
KM12 colon
  TGI: > 100 µM
LOX IMVI melanoma
  TGI: > 100 µM
M14 melanoma
  TGI: > 100 µM
MALME-3M melanoma
  TGI: > 100 µM
MDA-MB-231 breast
  TGI: > 100 µM
MDA-MB-435
  TGI: > 100 µM
MDA-N
  TGI: > 100 µM
MOLT-4 leukemia
  TGI: > 100 µM
NCI-H226 lung
  TGI: > 100 µM
NCI-H23 lung
  TGI: > 100 µM
NCI-H460 lung
  TGI: > 100 µM
NCI-H522 lung
  TGI: > 100 µM
NCI/ADR-RES ovarian
  TGI: > 100 µM
OVCAR-3 ovarian
  TGI: > 100 µM
OVCAR-4 ovarian
  TGI: > 100 µM
OVCAR-5 ovarian
  TGI: > 100 µM
OVCAR-8 ovarian
  TGI: > 100 µM
PC-3 prostate
  TGI: > 100 µM
RPMI-8226 leukemia
  TGI: > 100 µM
SF-268 CNS
  TGI: > 100 µM
SF-295 CNS
  TGI: > 100 µM
SF-539 CNS
  TGI: > 100 µM
SK-MEL-2 melanoma
  TGI: > 100 µM
SK-MEL-28 melanoma
  TGI: > 100 µM
SK-MEL-5 melanoma
  TGI: > 100 µM
SK-OV-3 ovarian
  TGI: > 100 µM
SN12C renal
  TGI: > 100 µM
SNB-19 CNS
  TGI: > 100 µM
SNB-75 CNS
  TGI: > 100 µM
SR leukemia
  TGI: > 100 µM
SW-620 colon
  TGI: > 100 µM
TK-10 renal
  TGI: > 100 µM
U251 CNS
  TGI: > 100 µM
UACC-257 melanoma
  TGI: > 100 µM
UACC-62 melanoma
  TGI: > 100 µM
UO-31 renal
  TGI: > 100 µM

## COc1ccc(N=Nc2c(O)ccc3ccccc23)cc1
786-0 renal
  TGI: > 100 µM
A549 NSCLC
  TGI: 39.5 µM
ACHN renal
  TGI: 57.7 µM
BT-549 breast
  TGI: 56.1 µM
CAKI-1 renal
  TGI: > 100 µM
CCRF-CEM leukemia
  TGI: > 100 µM
COLO 205 colon
  TGI: > 100 µM
EKVX NSCLC
  TGI: 34.8 µM
HCT-116 colon
  TGI: > 100 µM
HCT-15 colon
  TGI: > 100 µM
HL-60(TB) leukemia
  TGI: > 100 µM
HOP-62 NSCLC
  TGI: 26.7 µM
HOP-92 NSCLC
  TGI: 47.7 µM
HS 578T breast
  TGI: 23.2 µM
HT29 colon
  TGI: 38 µM
IGROV1 ovarian
  TGI: 24.2 µM
KM12 colon
  TGI: 24.9 µM
LOX IMVI melanoma
  TGI: > 100 µM
M14 melanoma
  TGI: > 100 µM
MALME-3M melanoma
  TGI: 32.9 µM
MDA-MB-231 breast
  TGI: 96.5 µM
MDA-MB-435
  TGI: > 100 µM
MDA-N
  TGI: > 100 µM
MOLT-4 leukemia
  TGI: > 100 µM
NCI-H226 lung
  TGI: 47.6 µM
NCI-H23 lung
  TGI: 85.2 µM
NCI-H522 lung
  TGI: 60.9 µM
NCI/ADR-RES ovarian
  TGI: > 100 µM
OVCAR-3 ovarian
  TGI: > 100 µM
OVCAR-4 ovarian
  TGI: 32.3 µM
OVCAR-5 ovarian
  TGI: 60.6 µM
OVCAR-8 ovarian
  TGI: 29.1 µM
PC-3 prostate
  TGI: > 100 µM
RXF 393 renal
  TGI: > 100 µM
SF-268 CNS
  TGI: 37.7 µM
SF-295 CNS
  TGI: 30.1 µM
SK-MEL-2 melanoma
  TGI: > 100 µM
SK-MEL-28 melanoma
  TGI: > 100 µM
SK-OV-3 ovarian
  TGI: 28.1 µM
SN12C renal
  TGI: > 100 µM
SNB-75 CNS
  TGI: 37.7 µM
SR leukemia
  TGI: 41.7 µM
SW-620 colon
  TGI: > 100 µM
TK-10 renal
  TGI: 34 µM
U251 CNS
  TGI: 30.6 µM
UACC-257 melanoma
  TGI: > 100 µM
UACC-62 melanoma
  TGI: 36.3 µM
UO-31 renal
  TGI: > 100 µM
